Measurements published in the supplement of paper PMC10307832.

Legend:
Test in all cases: relative viability (nuclei count vs DMSO), 5 days (fraction); higher = more cells survive
Ispinesib + Dasatinib = compound: Cc1ccc(C(=O)N(CCCN)[C@@H](c2nc3cc(Cl)ccc3c(=O)n2Cc2ccccc2)C(C)C)cc1 [Ispinesib] + Cc1nc(Nc2ncc(C(=O)Nc3c(C)cccc3Cl)s2)cc(N2CCN(CCO)CC2)n1 [Dasatinib] (partner 0.075 µM)
Procedure, shortened: (§1)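 Lung cancer cell lines in 1536-well plates were dosed by pin tool the day after seeding, either with one drug alone or with a fixed anchor-drug dose plus five library-drug doses (not always all listed) in √10 steps. After 5 days, cells were fixed and their nuclei stained in one step (final 0.05% Triton X-100, 1% formaldehyde, 1 ug/ml Hoechst), then counted on 4× images. Relative viability is the nuclei count in treated wells divided by that in vehicle wells. Values are medians of duplicate plates.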

Ispinesib + Lapatinib = compound: Cc1ccc(C(=O)N(CCCN)[C@@H](c2nc3cc(Cl)ccc3c(=O)n2Cc2ccccc2)C(C)C)cc1 [Ispinesib] + CS(=O)(=O)CCNCc1ccc(-c2ccc3ncnc(Nc4ccc(OCc5cccc(F)c5)c(Cl)c4)c3c2)o1 [Lapatinib] (partner 2 µM)
Procedure, shortened: as §1

Ispinesib + Vorinostat = compound: Cc1ccc(C(=O)N(CCCN)[C@@H](c2nc3cc(Cl)ccc3c(=O)n2Cc2ccccc2)C(C)C)cc1 [Ispinesib] + O=C(CCCCCCC(=O)Nc1ccccc1)NO [Vorinostat] (partner 1 µM)
Procedure, shortened: as §1

Linsitinib + Vorinostat = compound: C[C@]1(O)C[C@@H](c2nc(-c3ccc4ccc(-c5ccccc5)nc4c3)c3c(N)nccn32)C1 [Linsitinib] + O=C(CCCCCCC(=O)Nc1ccccc1)NO [Vorinostat] (partner 1 µM)
Procedure, shortened: as §1

Row | Cell Line | relative viability (Ispinesib + Dasatinib; first compound 0.001 µM) | relative viability (Ispinesib + Dasatinib; first compound 0.003162 µM) | relative viability (Ispinesib + Dasatinib; first compound 0.01 µM) | relative viability (Ispinesib + Dasatinib; first compound 0.03162 µM) | relative viability (Ispinesib + Dasatinib; first compound 0.1 µM) | relative viability (Ispinesib + Lapatinib; first compound 0.001 µM) | relative viability (Ispinesib + Lapatinib; first compound 0.003162 µM) | relative viability (Ispinesib + Lapatinib; first compound 0.01 µM) | relative viability (Ispinesib + Lapatinib; first compound 0.03162 µM) | relative viability (Ispinesib + Lapatinib; first compound 0.1 µM) | relative viability (Ispinesib + Vorinostat; first compound 0.001 µM) | relative viability (Ispinesib + Vorinostat; first compound 0.003162 µM) | relative viability (Ispinesib + Vorinostat; first compound 0.01 µM) | relative viability (Ispinesib + Vorinostat; first compound 0.03162 µM) | relative viability (Ispinesib + Vorinostat; first compound 0.1 µM) | relative viability (Linsitinib + Vorinostat; first compound 0.01 µM) | relative viability (Linsitinib + Vorinostat; first compound 0.03162 µM) | relative viability (Linsitinib + Vorinostat; first compound 0.1 µM) | relative viability (Linsitinib + Vorinostat; first compound 0.3162 µM) | relative viability (Linsitinib + Vorinostat; first compound 1 µM)
1 | HCC-366 | 0.701 | 0.74 | 0.733 | 0.704 | 0.0265 | 1.03 | 1.12 | 1.33 | 0.0151 | 0.0387 | 0.353 | 0.512 | 0.351 | 0.216 | 0.0545 | 0.41 | 0.328 | 0.324 | 0.218 | 0.0911
2 | HCC-827 | 0.36 | 0.318 | 0.317 | 0.292 | 0.263 | 0.194 | 0.194 | 0.181 | 0.189 | 0.0607 | 0.827 | 0.999 | 0.861 | 0.649 | 0.696 | 0.207 | 0.829 | 0.799 | – | 0.639
3 | HOP-62 | 0.815 | 0.824 | 0.837 | 0.534 | 0.251 | 1.11 | 1.07 | 1.15 | 1.11 | 0.231 | 0.685 | 0.631 | 0.949 | 0.667 | 0.25 | 0.699 | 0.57 | 0.682 | – | 0.36
4 | IA-LM | – | – | – | – | – | 0.833 | 1.03 | 0.513 | 0.123 | 0.197 | 0.889 | 0.863 | 1.01 | 1.23 | 0.369 | 0.975 | 0.829 | 1.06 | 0.315 | 0.499
5 | LC-2-ad | 0.566 | 0.716 | 0.737 | 0.318 | 0.133 | 0.949 | 1.02 | 1.07 | 0.504 | 0.114 | 0.718 | 0.697 | 0.765 | 0.321 | 0.19 | 0.719 | 0.693 | 0.692 | 0.487 | 0.443
6 | LCLC-97TM1 | 0.86 | 0.825 | 1.03 | 0.631 | 0.221 | 0.998 | 1.18 | 0.858 | 0.673 | 0.112 | 0.645 | 0.847 | 1.04 | 0.289 | 0.0855 | 0.756 | 0.711 | 0.674 | 0.103 | 0.191
7 | LCLC-103H | 0.553 | 0.506 | 0.602 | 0.302 | 0.244 | – | – | – | – | – | 0.827 | 0.86 | 0.845 | 0.515 | 0.352 | 0.775 | 0.68 | 0.836 | 0.429 | 0.605
8 | LK-2 | 0.227 | 0.331 | 0.299 | 0.26 | 0.199 | 1.07 | 1.07 | 0.908 | 0.681 | 0.313 | 0.247 | 0.348 | 0.343 | 0.195 | 0.24 | 0.237 | 0.335 | 0.178 | 0.275 | 0.176
9 | LOU-NH91 | 0.591 | 0.608 | 0.592 | 0.519 | 0.206 | 0.785 | 0.799 | 0.779 | 0.447 | 0.271 | 0.91 | 1.04 | 0.939 | 0.247 | 0.236 | 0.983 | 0.817 | 0.914 | 0.735 | 0.76
10 | LU99A | 0.676 | 0.519 | 0.558 | 0.363 | 0.203 | 0.992 | 1.11 | 1.14 | 0.192 | 0.201 | 0.445 | 0.485 | 0.467 | 0.265 | 0.247 | 0.492 | 0.466 | 0.524 | – | 0.291
11 | LXF-289 | 0.308 | 0.215 | 0.197 | 0.209 | 0.0629 | 0.872 | 0.909 | 1.01 | 0.634 | 0.118 | 0.758 | 0.772 | 0.837 | 0.478 | 0.217 | 0.735 | 0.69 | 0.755 | 0.473 | 0.729
12 | NCI-H441 | 0.713 | 0.634 | 0.453 | 0.293 | 0.266 | – | – | – | – | – | 0.838 | 0.909 | 0.91 | 0.548 | 0.256 | 0.904 | 0.829 | 0.84 | 0.556 | 0.547
13 | NCI-H522 | 0.723 | 1.11 | 1.05 | 0.634 | 0.401 | – | – | – | – | – | 0.824 | 0.897 | 0.803 | 0.592 | 0.351 | 0.892 | 1 | 0.791 | 0.499 | 0.727
14 | NCI-H1299 | – | – | – | – | – | 1.02 | 0.988 | 0.979 | 0.813 | 0.3 | – | – | – | – | – | – | – | – | – | –
15 | NCI-H1563 | 0.395 | 0.483 | 0.469 | 0.417 | 0.378 | 1.03 | 0.956 | 0.928 | 0.686 | 0.624 | – | – | – | – | – | – | – | – | – | –
16 | NCI-H1623 | 0.63 | 0.63 | 0.523 | 0.461 | 0.468 | – | – | – | – | – | – | – | – | – | – | – | – | – | – | –
17 | NCI-H1648 | – | – | – | – | – | – | – | – | – | – | 0.594 | 0.682 | 0.422 | 0.634 | 0.428 | 0.605 | 0.412 | 0.551 | 0.211 | 0.57
18 | NCI-H1703 | – | – | – | – | – | 1.32 | 0.893 | 0.227 | 0.11 | 0.234 | – | – | – | – | – | – | – | – | – | –
19 | NCI-H1792 | 1.25 | 0.777 | 0.776 | 0.9 | 0.325 | 0.876 | 1.05 | 0.843 | 0.418 | 0.314 | – | – | – | – | – | – | – | – | – | –
20 | NCI-H2342 | 0.284 | 0.305 | 0.328 | 0.284 | 0.27 | – | – | – | – | – | 0.664 | 0.724 | 0.797 | 0.75 | 0.554 | 0.689 | 0.707 | 0.764 | 0.727 | 0.756
21 | SW 900 | 0.561 | 0.654 | 0.782 | 0.246 | 0.196 | – | – | – | – | – | 0.523 | 0.606 | 0.478 | 0.449 | 0.294 | 0.627 | 0.436 | 0.458 | 0.285 | 0.272
